According to patent publication US20190381198A1, “RA[…]-GAL[…] FOR PET IMAGING OF SENESCENCE” (Eberhard Karls Universitaet Tuebingen Medizinische Fakultaet, priority 2017, published 2019):

Key:
HCT116 cells = assay: in vitro tracer uptake in senescent vs control HCT116 cells (gamma counter); assay type: cell-based; conditions: 3.7-7.4 MBq of tracer, 50 minutes
Method: (§1) HCT116 (FIG. 4a) and Hras cells (FIG. 4b) are treated with […] of tracer and incubated for 50 minutes. The cells are measured in a gamma-counter, with the activity normalized to the number of cells used.
(§2) The PET-tracer is tested in two different models in vitro. In HCT116 cells senescence is induced by overnight incubation with doxorubicin, followed by 4 days of culture under normal conditions. Senescence in a HRas driven liver progenitor cell line with a doxycycline regulatable p53-specific shRNA. After induction of senescence, both cell lines are incubated with 3.7-7.4 MBq of tracer for 50 minutes. The cells are then washed, counted and measured in a gamma counter. The activity taken up by the cells is analyzed and normalized to a million cells.

HCT116 tumors = assay: in vivo PET tracer uptake in s.c. HCT116 xenograft tumors, doxorubicin-induced senescence; design: species or system nude mice; conditions: for TMR (tumor-to-muscle ratio) / in vivo tracer uptake: PET; for in vivo tracer uptake: i.v.
Method: A xenograft model of colorectal cancer cell line (HCT116) with therapy induced senescence, doxorubicin is used as a chemotherapeutic. Senescence is induced in HCT116 xenograft tumors by intravenous (i.v.) administration of doxorubicin (10 mg/kg). Through tail vain of the mice, 5 days later dynamic PET/MRT scans (1 h) with compound 9 are performed.
(§3) In vivo tests are performed in nude mice bearing s.c. HCT116 or HRas driven liver progenitor cells. Mice bearing HCT116 tumors are treated with doxorubicin (10 mg/Kg bodyweight) and imaged 4 days after the onset of senescence. Mice bearing Hras driven tumor are supplied with doxycycline in their drinking water, which has been later removed to induce senescence. After induction of senescence, the tracer is administered i.v. and PET scans are performed. The %ID/cc and tumor-to-muscle ratios are determined through quantitative analysis of the PET data, permitting evaluation of the tracers. In vitro senescent HCT116 cells show an uptake of 11 kBq/1 mio cells, while the uptake in non-senescent control cells is only 4 kBq/1 mio cells.
The in vivo tracer uptake in senescent and non-senescent HCT116 tumors (FIG. 5) is 1.7+/−0.7 (n=7) vs 1.1+/−0.4 (n=5) %ID/cc respectively; the respective TMR values are 1.7 and 1.1. […] Both %ID/cc and TMR are higher in senescent vs control tumors. The excised tumors are subjected to ex vivo analyses.

beta-galactosidase = conditions: 30° C., 30 minutes, citrate buffer pH 5.5
Method: To assess whether tracer 9 is a substrate of beta-galactosidase, it is incubated at 30° C. for 30 minutes in citrate buffer of pH 5.5 containing commercially available betagalactosidase (Sigma). The reaction is stopped by adding 2 volume equivalents of acetonitrile, followed by 5 minutes of centrifugation. The supernatant is examined directly using radio-HPLC. […] The expected radioactive metabolite is compared with the authentic non-radioactive standard (FIG. 2). […] Compound 11 is galactose.

Hras tumors = assay: in vivo PET tracer uptake in s.c. HRas driven tumors, senescence by doxycycline removal; design: species or system nude mice; conditions: for TMR (tumor-to-muscle ratio) / tracer uptake: PET; for tracer uptake: i.v.
Method: (§4) As the second model, transgenic liver progenitor cell line (Hras) was used for subcutaneous allografts in nude mice. The cell line expresses Hras^G12v and p53shRNA under doxycycline (doxy) conditions. After the removal of doxycycline, the p53 mRNA can be restored and translated to p53 protein. The high amount of p53 triggers senescence. The animals bearing Hras tumors received doxy-water (0.2 mg/ml) for tumor development and 14 days, after removal of doxy-water, the PET/MRT scans are performed with compound 9.
as §3
Both %ID/cc and TMR are higher in senescent vs control tumors. The excised tumors are subjected to ex vivo analyses. […] Senescent tumor slices also show higher X-Gal staining than control sections. The nonsenescent tumor expresses GFP, which can be visualized with optical imaging.

[1] = stability of tracer 9 in mouse serum (radio-HPLC); assay type: in vitro ADME; conditions: 37° C., 1 hour
Method: The tracer 9 is incubated at 37° C. in mouse serum to assess its stability. After 1 hour, 2 volume equivalents of acetonitrile are added and the mixture is centrifuged for 5 minutes. The supernatant is examined directly using radio-HPLC. Serum stability of tracer 9 after 1 h (FIG. 3a) vs tracer 9 (FIG. 3b) is derivable from FIG. 3.

[2] = tested on: HRas driven liver progenitor cell line; assay: in vitro tracer uptake in senescent vs control HRas driven liver progenitor cells (gamma counter); assay type: cell-based; conditions: 3.7-7.4 MBq of tracer, 50 minutes
Method: as §4, §1, §2

OC[C@H]1O[C@@H](Oc2cccnc2[18F])[C@H](O)[C@@H](O)[C@H]1O [tracer 9]
uptake in senescent cells compared to controls (HCT116 cells; HCT116 cells, activity normalized to number of cells): significantly higher uptake compared to the controls | uptake (HCT116 cells; non-senescent control HCT116 cells): 4 kBq/1 mio cells | uptake (HCT116 cells; senescent HCT116 cells): 11 kBq/1 mio cells | autoradiography of excised tumors, ex vivo (HCT116 tumors; HCT116 tumor sections, senescent vs control): higher tracer uptake in the senescent tumor section vs control | TMR (tumor-to-muscle ratio) (HCT116 tumors; non-senescent HCT116 tumors): 1.1 | in vivo tracer uptake (HCT116 tumors; non-senescent HCT116 tumors, n=5): 1.1+/−0.4 %ID/cc | TMR (tumor-to-muscle ratio) (HCT116 tumors; senescent HCT116 tumors): 1.7 | in vivo tracer uptake (HCT116 tumors; senescent HCT116 tumors, n=7): 1.7+/−0.7 %ID/cc | conversion by beta-galactosidase (radioactive metabolite by radio-HPLC) (beta-galactosidase): produces the radioactive metabolite with the same retention time as the non-radioactive 2-fluoropyridinol | autoradiography of excised tumors, ex vivo (Hras tumors; HRas tumor sections, senescent vs control): higher tracer uptake in the senescent tumor section vs control | TMR (tumor-to-muscle ratio) (Hras tumors; control HRas tumors): 1.2 | tracer uptake (Hras tumors; control HRas tumors, n=11): 0.9+/−0.3 %ID/cc | TMR (tumor-to-muscle ratio) (Hras tumors; senescent HRas tumors): 2.1 | tracer uptake (Hras tumors; senescent HRas tumors, n=16): 1.5+/−0.3 %ID/cc | serum stability [1]: integrity remains largely intact | uptake in senescent cells compared to controls ([2]; Hras cells, activity normalized to number of cells): significantly higher uptake compared to the controls | uptake ([2]; non-senescent HRas driven liver progenitor cells): 63 kBq/1 mio cells | uptake ([2]; senescent HRas driven liver progenitor cells): 192 kBq/1 mio cells
